Assay results reported in patent US12473294B2, “Selective modulators of mutant LRRK2 proteolysis and associated methods of use” (Arvinas Operations, Inc., priority 2020, dated 2025).

Columns and labels:
wildtype LRRK2 = molecular target: T1, wildtype LRRK2 (Homo sapiens, UniProt Q5S007); assay: LRRK2 degradation HiBit assay, wildtype LRRK2 tagged with a HiBit tag in HEK293 cells; type: cell-based; settings: 24 hours compound incubation; for Dmax: read-out: ** WT Dmax (%); for DC50: read-out: *WT DC50
T1 construct: endogenous in cells; host or cells: HEK293 with HiBit knocked in at the 3' end of the endogenous LRRK2 gene, stably expressing firefly luciferase
Summary of the method: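 HEK293 cells transiently co-transfected with ubiquitin-promoter-driven C-terminally HiBit-tagged wildtype LRRK2 plus firefly luciferase, then treated with compound for 24 h at 37° C. HiBit/luciferase ratio ×1000 normalized to DMSO median; DC50 and Dmax fitted per plate, six replicates across two days.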

G2019S LRRK2 = molecular target: T2, G2019S LRRK2 (Homo sapiens, UniProt Q5S007, G2019S); assay: LRRK2 degradation HiBit assay, G2019S LRRK2 tagged with a HiBit tag expressed in HEK293 cells; type: cell-based; settings: 24 hours compound incubation; for Dmax: HEK293, HEK293 cells; for DC50: HEK293 cells
T2 construct: expressed in transfected cells; host or cells: HEK293 (ATCC CRL-1573)
Summary of the method: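 HEK293 cells were transiently transfected with G2019S LRRK2 carrying a C-terminal HiBit tag (ubiquitin promoter) plus firefly luciferase, then exposed to compound for 24 h at 37 °C. Dual luminescence gave the HiBit/luciferase ratio ×1000, normalised to DMSO. DC50 and Dmax were fitted per plate.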

T2 sequence (Q5S007 whole entry G2019S): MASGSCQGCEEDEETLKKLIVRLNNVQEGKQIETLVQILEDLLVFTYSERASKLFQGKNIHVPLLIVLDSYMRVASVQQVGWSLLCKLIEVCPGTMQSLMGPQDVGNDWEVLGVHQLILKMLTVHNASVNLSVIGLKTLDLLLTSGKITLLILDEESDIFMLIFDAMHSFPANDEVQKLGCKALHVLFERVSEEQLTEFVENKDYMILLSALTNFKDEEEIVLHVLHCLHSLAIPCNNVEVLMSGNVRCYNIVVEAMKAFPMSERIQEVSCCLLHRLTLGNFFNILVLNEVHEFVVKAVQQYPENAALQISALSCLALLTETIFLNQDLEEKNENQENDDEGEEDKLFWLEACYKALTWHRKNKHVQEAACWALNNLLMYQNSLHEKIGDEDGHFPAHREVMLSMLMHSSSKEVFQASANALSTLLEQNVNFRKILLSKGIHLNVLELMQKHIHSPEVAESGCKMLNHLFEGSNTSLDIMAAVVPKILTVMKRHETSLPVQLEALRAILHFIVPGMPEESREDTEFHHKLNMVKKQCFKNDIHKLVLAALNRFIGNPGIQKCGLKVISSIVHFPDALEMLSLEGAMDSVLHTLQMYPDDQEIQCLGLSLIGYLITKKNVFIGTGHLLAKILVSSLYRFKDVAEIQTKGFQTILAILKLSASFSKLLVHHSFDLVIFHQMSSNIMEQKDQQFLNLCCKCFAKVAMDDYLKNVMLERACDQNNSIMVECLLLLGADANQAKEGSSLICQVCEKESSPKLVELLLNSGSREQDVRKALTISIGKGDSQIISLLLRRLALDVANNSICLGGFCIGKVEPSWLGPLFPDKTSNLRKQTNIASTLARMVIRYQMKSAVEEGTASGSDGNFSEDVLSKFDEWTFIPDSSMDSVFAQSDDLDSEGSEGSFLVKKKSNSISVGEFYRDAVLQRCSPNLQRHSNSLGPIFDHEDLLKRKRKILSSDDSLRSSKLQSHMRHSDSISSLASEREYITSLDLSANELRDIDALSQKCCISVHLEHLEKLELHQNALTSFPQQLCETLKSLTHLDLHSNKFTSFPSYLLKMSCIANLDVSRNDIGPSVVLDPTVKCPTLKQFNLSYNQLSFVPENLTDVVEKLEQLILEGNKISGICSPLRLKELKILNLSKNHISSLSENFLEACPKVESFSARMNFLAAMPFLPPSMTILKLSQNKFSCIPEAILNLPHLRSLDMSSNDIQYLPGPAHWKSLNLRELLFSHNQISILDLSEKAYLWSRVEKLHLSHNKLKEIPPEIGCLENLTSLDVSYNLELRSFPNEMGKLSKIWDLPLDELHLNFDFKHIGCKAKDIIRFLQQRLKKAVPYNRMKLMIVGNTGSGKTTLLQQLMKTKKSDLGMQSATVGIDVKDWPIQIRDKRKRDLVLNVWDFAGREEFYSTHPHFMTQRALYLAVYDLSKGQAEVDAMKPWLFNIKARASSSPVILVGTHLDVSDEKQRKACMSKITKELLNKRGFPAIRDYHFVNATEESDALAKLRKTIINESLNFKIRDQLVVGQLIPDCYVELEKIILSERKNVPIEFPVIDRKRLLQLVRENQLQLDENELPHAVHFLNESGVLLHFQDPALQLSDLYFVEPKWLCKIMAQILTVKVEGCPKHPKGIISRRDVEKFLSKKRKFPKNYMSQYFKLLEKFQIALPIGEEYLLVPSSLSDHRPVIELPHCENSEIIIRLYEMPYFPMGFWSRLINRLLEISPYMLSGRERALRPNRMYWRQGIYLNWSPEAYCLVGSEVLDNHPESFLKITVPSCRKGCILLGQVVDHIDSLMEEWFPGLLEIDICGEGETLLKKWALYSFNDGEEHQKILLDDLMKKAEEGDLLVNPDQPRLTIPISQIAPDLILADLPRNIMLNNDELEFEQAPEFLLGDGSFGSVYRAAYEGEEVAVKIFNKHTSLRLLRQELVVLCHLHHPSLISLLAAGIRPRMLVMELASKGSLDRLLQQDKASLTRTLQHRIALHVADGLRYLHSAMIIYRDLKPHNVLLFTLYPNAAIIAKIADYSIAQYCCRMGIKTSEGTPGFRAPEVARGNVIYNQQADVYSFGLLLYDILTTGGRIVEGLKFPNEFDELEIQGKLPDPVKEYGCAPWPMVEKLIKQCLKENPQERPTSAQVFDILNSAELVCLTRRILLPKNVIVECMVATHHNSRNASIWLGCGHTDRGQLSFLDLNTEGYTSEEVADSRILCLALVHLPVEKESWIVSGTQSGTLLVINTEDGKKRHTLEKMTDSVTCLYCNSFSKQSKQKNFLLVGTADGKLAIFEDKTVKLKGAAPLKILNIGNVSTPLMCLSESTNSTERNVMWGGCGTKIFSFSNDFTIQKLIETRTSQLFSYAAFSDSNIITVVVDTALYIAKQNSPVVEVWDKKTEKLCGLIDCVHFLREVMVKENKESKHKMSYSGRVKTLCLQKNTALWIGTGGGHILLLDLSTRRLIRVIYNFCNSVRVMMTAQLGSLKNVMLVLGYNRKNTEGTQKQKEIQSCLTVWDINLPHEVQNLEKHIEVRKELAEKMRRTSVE
T1 sequence (Q5S007 whole entry): as the sequence (Q5S007 whole entry G2019S) above, with S2019G counted along it

SMILES	Dmax (wildtype LRRK2)	DC50 (wildtype LRRK2)	Dmax (G2019S LRRK2)	DC50 (G2019S LRRK2)
CC1=C(C(=O)Nc2ccc3[nH]nc(-c4ccnc(N5CCN(CC6CCN(CC7CCN(c8ccc9c(c8)C(=O)N(C8CCC(=O)NC8=O)C9=O)CC7)CC6)[C@@H](C)C5)c4)c3c2)Cn2nnnc2N1C (stereo partly drawn) [compound 10, N-(3-(2-((S)-4-((1-((1-(2-(2,6-dioxopiperidin-3-yl)-1,3-dioxoisoindolin-5-yl)piperidin-4-yl)methyl)piperidin-4-yl)methyl)-3-methylpiperazin-1-yl)pyridin-4-yl)-1H-indazol-5-yl)-4,5-dimethyl-4,7-dihydrotetrazolo[1,5-a]pyrimidine-6-carboxamide]	50 to 70%	10 to 50 nM	50 to 70%	< 10 nM
CC1=C(C(=O)Nc2ccc3[nH]nc(-c4ccnc(N5C[C@@H](C)N(CC6CCN(CC7CCN(c8ccc9c(c8)C(=O)N(C8CCC(=O)NC8=O)C9=O)CC7)CC6)[C@@H](C)C5)c4)c3c2)Cn2nnnc2N1C (stereo partly drawn) [compound 1, N-(3-(2-((3S,5R)-4-((1-((1-(2-(2,6-dioxopiperidin-3-yl)-1,3-dioxoisoindolin-5-yl)piperidin-4-yl)methyl)piperidin-4-yl)methyl)-3,5-dimethylpiperazin-1-yl)pyridin-4-yl)-1H-indazol-5-yl)-4,5-dimethyl-4,7-dihydrotetrazolo[1,5-a]pyrimidine-6-carboxamide]	50 to 70%	10 to 50 nM	50 to 70%	< 10 nM
CC1=C(C(=O)Nc2ccc3[nH]nc(-c4ccnc(N5CCN(CC6CCN(CC7CCN(c8ccc9c(c8)C(=O)N(C8CCC(=O)NC8=O)C9=O)CC7)CC6)CC5)c4)c3c2)[C@H](C)n2nnnc2N1C (stereo partly drawn) [compound 12, (7S)-N-(3-(2-(4-((1-((1-(2-(2,6-dioxopiperidin-3-yl)-1,3-dioxoisoindolin-5-yl)piperidin-4-yl)methyl)piperidin-4-yl)methyl)piperazin-1-yl)pyridin-4-yl)-1H-indazol-5-yl)-4,5,7-trimethyl-4,7-dihydrotetrazolo[1,5-a]pyrimidine-6-carboxamide]	–	≥ 100 nM	< 50%	≥ 100 nM
CC1=C(C(=O)Nc2ccc3[nH]nc(-c4ccnc(N5CCN(CC6CCN(CC7CCN(c8ccc9c(c8)C(=O)N(C8CCC(=O)NC8=O)C9=O)CC7)CC6)CC5)c4)c3c2)[C@@H](C)n2nnnc2N1C (stereo partly drawn) [compound 11, (7R)-N-(3-(2-(4-((1-((1-(2-(2,6-dioxopiperidin-3-yl)-1,3-dioxoisoindolin-5-yl)piperidin-4-yl)methyl)piperidin-4-yl)methyl)piperazin-1-yl)pyridin-4-yl)-1H-indazol-5-yl)-4,5,7-trimethyl-4,7-dihydrotetrazolo[1,5-a]pyrimidine-6-carboxamide]	< 50%	50 to 100 nM	< 50%	10 to 50 nM
